Measured values: patent US5847092A (Zambon Group S.p.A., priority 1994, dated 1998)
Values after ≈ are worked out from the molar mass of the structure shown. Where two headings read alike, the source gives them in different places.

Key:
[1] = system: Streptococcus pyogenes A 26; experiment: In vitro antibacterial activity, MIC, broth microdilution; assay type: cell-based; details: Streptococcus pyogenes, A26; S. pyogenes A 26; MHB + 5% horse serum; 37° C., 18 hours; read-out: minimum inhibiting concentration MIC
Experimental: (§1) a) In vitro antibacterial activity The determination of the minimum inhibiting concentrations (MIC), with respect to Gram-positive and Gram-negative bacteria was carried out through the micromethod of gradual broth dilution in double series [National Committee for Clinical Laboratory Standards, 1990; Methods for dilution antimicrobial susceptibility tests for bacteria that grow aerobically; Approved standards […], Villanova, Pa.], by using Mueller Hinton Broth (MHB) as a culture medium. In the case of […] bacteria, horse serum at 5% (Streptococcus pneumoniae and Streptococcus pyogenes) was added to the medium. Roxithromycin and Clarithromycin [The Merck Index, XI Ed., No. 8253 and 2340, respectively] were used as reference macrolides. MIC, expressed as (μg/ml), were determined after incubation of the microplates at 37° C. for 18 hours, evaluating the lowest antibiotic concentration enabling the inhibition of bacterial development.

[2] = system: Enterococcus faecalis ATCC 29212; experiment: as above; assay type: cell-based; details: Enterococcus faecalis, ATCC29212; E. faecalis ATCC 29212; MHB; 37° C., 18 hours; read-out: minimum inhibiting concentration MIC
Experimental: as §1

[3] = system: Escherichia coli ATCC 25922; experiment: as above; assay type: cell-based; details: Escherichia coli, ATCC25922; E. coli ATCC 25922; MHB; 37° C., 18 hours; read-out: minimum inhibiting concentration MIC
Experimental: as §1

[4] = system: Streptococcus pyogenes C 203; experiment: as above; assay type: cell-based; details: Streptococcus pyogenes, C203; S. pyogenes C 203; MHB + 5% horse serum; 37° C., 18 hours; read-out: minimum inhibiting concentration MIC
Experimental: as §1

[5] = system: Streptococcus pneumoniae BS 3; experiment: as above; assay type: cell-based; details: Streptococcus pneumoniae, BS3; S. pneumoniae BS 3; MHB + 5% horse serum; 37° C., 18 hours; read-out: minimum inhibiting concentration MIC
Experimental: as §1

[6] = system: Staphylococcus aureus PV 14; experiment: as above; assay type: cell-based; details: Staphylococcus aureus, PV14; S. aureus PV 14; MHB; 37° C., 18 hours; read-out: minimum inhibiting concentration MIC
Experimental: as §1

[7] = system: Streptococcus pneumoniae BS 4; experiment: as above; assay type: cell-based; details: Streptococcus pneumoniae, BS4; S. pneumoniae BS 4; MHB + 5% horse serum; 37° C., 18 hours; read-out: minimum inhibiting concentration MIC
Experimental: as §1

[8] = system: Klebsiella pneumoniae ZC 2; experiment: as above; assay type: cell-based; details: Klebsiella pneumoniae, ZC2; K. pneumoniae ZC 2; MHB; 37° C., 18 hours; read-out: minimum inhibiting concentration MIC
Experimental: as §1

[9] = system: Streptococcus pyogenes C 203; experiment: In vivo antibacterial activity, experimental pulmonary infection in mouse; details: for ED50: Streptococcus pyogenes, C203, ip, 240 h, intraperitoneal single dose, read-out: average protecting dose PD50
Experimental: The in vivo antibacterial activity of the compounds of formula (I), expressed as average protecting dose PD50 (mg/Kg), was evaluated by means of experimental pulmonary infection induced in mouse by Streptococcus pyogenes (example 23).
b) In vivo antibacterial activity
The therapeutical effectiveness, expressed as average protecting dose (PD50), of the considered compounds of formula (I) was evaluated by experimental pulmonary infection induced in mouse by Streptococcus pyogenesC 203.
Charles River albin mice (strain CD 1), of body weight comprised between 23-35 g, stabulated in groups of 6 for cage and normo-feeded with standard diet and water ad libitum were used. A suspension of S. pyogenes C 203 (corresponding about to 10^8 UFC) in tryptose broth (0.05 ml) was intranasally administered to each mouse anesthesized with a mixture of ethyl ether and chloroform.
The compounds under examination were intraperitoneally administered as a single dose, in 0.2% Tween suspension, 24 hours before or 1 hour after the infection.
Mice mortality observation was prolonged up to 10 days from the infection.
PD50 calculation, expressed as (mg/Kg), was carried out through the analysis of probit.
In vivo antibacterial activity, expressed as average protecting dose PD50 (mg/Kg), 24 hours before and 1 hour after the experimental pulmonary infection induced in mouse by Streptococcus pyogenes C 203, of the compounds 4, 10, 16-19, 21, 23, 26-27, 29-30, 33-35 and 38 and of the reference compounds Roxithromycin and Clarithromycin.

Row | Compound | MIC [1] | MIC [2] | MIC [3] | MIC [4] | MIC [5] | MIC [6] | MIC [7] | MIC [8] | ED50 ([9]; 1 hour after infection) | ED50 ([9]; 24 hours before infection) | in vivo activity, pulmonary infection (in words) ([9]; administered 24 hours before the infection)
1 | CC[C@H]1OC(=O)[C@H](C)[C@@H](O[C@H]2C[C@@](C)(OC)[C@@H](O)[C@H](C)O2)[C@H](C)[C@@H](O[C@@H]2O[C@H](C)C[C@H](N(C)C)[C@H]2O)[C@](C)(OC)C[C@@H](C)C(=O)[C@H](C)[C@@H](O)[C@]1(C)O [Clarithromycin, reference compound] | 0.0078 µg/mL | 1 µg/mL (≈ 1.34 µM) | 64 µg/mL (≈ 85.6 µM) | 7.8 ng/mL | 0.0078 µg/mL | 0.25 µg/mL (≈ 0.334 µM) | 0.0156 µg/mL | 128 µg/mL (≈ 171 µM) | 3.25 mg/kg | > 50 mg/kg | inactive
2 | CC[C@H]1OC(=O)[C@H](C)[C@@H](O[C@H]2C[C@@](C)(OC)[C@@H](O)[C@H](C)O2)[C@H](C)[C@@H](O[C@@H]2O[C@H](C)C[C@H](N(C)C)[C@H]2O)[C@](C)(O)C[C@@H](C)/C(=N\OCCNCCCCCCNCc2cccc(Oc3ccccc3)c2)[C@H](C)[C@@H](O)[C@]1(C)O [Compound 27, Erythromycin A (E)-9-[0-[2-[6-[(3-phenoxyphenyl)methylamino]hexylamino]ethyl]oxime]] | 0.0156 µg/mL | 1 µg/mL (≈ 0.932 µM) | 1 µg/mL (≈ 0.932 µM) | 7.8 ng/mL | 0.0078 µg/mL | 0.5 µg/mL (≈ 0.466 µM) | 0.0078 µg/mL | 2 µg/mL (≈ 1.86 µM) | 15.6 mg/kg | 15.6 mg/kg | 
3 | CC[C@H]1OC(=O)[C@H](C)[C@@H](O[C@H]2C[C@@](C)(OC)[C@@H](O)[C@H](C)O2)[C@H](C)[C@@H](O[C@@H]2O[C@H](C)C[C@H](N(C)C)[C@H]2O)[C@](C)(O)C[C@@H](C)/C(=N\OCCNCCCCCCNCc2ccc(F)cc2)[C@H](C)[C@@H](O)[C@]1(C)O [Compound 16, Erythromycin A (E)-9-[0-[2-[6-[(4-fluorophenyl)methylamino]hexylamino]ethyl]oxime]] | 0.0156 µg/mL | 4 µg/mL (≈ 4 µM) | 2 µg/mL (≈ 2 µM) | 3.9 ng/mL | 0.0156 µg/mL | 0.25 µg/mL (≈ 0.25 µM) | 0.0156 µg/mL | 8 µg/mL (≈ 8.01 µM) | 3.6 mg/kg | 10.2 mg/kg | 
4 | CC[C@H]1OC(=O)[C@H](C)[C@@H](O[C@H]2C[C@@](C)(OC)[C@@H](O)[C@H](C)O2)[C@H](C)[C@@H](O[C@@H]2O[C@H](C)C[C@H](N(C)C)[C@H]2O)[C@](C)(O)C[C@@H](C)/C(=N\OCCNCCCCCCNCc2ccccc2[N+](=O)[O-])[C@H](C)[C@@H](O)[C@]1(C)O [Compound 33, Erythromycin A (E)-9-[0-[2-[6-[(2-nitrophenyl)methylamino]hexylamino]ethyl]oxime]] | 0.0039 µg/mL | 2 µg/mL (≈ 1.95 µM) | 4 µg/mL (≈ 3.9 µM) | 0.97 ng/mL | 0.0039 µg/mL | 0.5 µg/mL (≈ 0.487 µM) | 0.0039 µg/mL | 16 µg/mL (≈ 15.6 µM) | 1.61 mg/kg | 6.11 mg/kg | 
5 | CC[C@H]1OC(=O)[C@H](C)[C@@H](O[C@H]2C[C@@](C)(OC)[C@@H](O)[C@H](C)O2)[C@H](C)[C@@H](O[C@@H]2O[C@H](C)C[C@H](N(C)C)[C@H]2O)[C@](C)(O)C[C@@H](C)/C(=N\OCCNCCCCCCNCc2ccccc2)[C@H](C)[C@@H](O)[C@]1(C)O [Compound 4, Erythromycin A (E)-9-[0-[2-[6-(phenylmethylamino)hexylamino]ethyl]oxime]] | 0.0156 µg/mL | 4 µg/mL (≈ 4.08 µM) | 4 µg/mL (≈ 4.08 µM) | 3.9 ng/mL | 0.0156 µg/mL | 0.25 µg/mL (≈ 0.255 µM) | 0.0156 µg/mL | 16 µg/mL (≈ 16.3 µM) | 0.9 mg/kg | 4.78 mg/kg | 
6 | CC[C@H]1OC(=O)[C@H](C)[C@@H](O[C@H]2C[C@@](C)(OC)[C@@H](O)[C@H](C)O2)[C@H](C)[C@@H](O[C@@H]2O[C@H](C)C[C@H](N(C)C)[C@H]2O)[C@](C)(O)C[C@@H](C)/C(=N\OCCNCCCCCCNCc2ccc(Oc3ccccc3)cc2)[C@H](C)[C@@H](O)[C@]1(C)O [Compound 29, Erythromycin A (E)-9-[0-[2-[6-[(4-phenoxyphenyl)methylamino]hexylamino]ethyl]oxime]] | 0.0312 µg/mL | 1 µg/mL (≈ 0.932 µM) | 1 µg/mL (≈ 0.932 µM) | 3.9 ng/mL | 0.0078 µg/mL | 0.5 µg/mL (≈ 0.466 µM) | 0.0156 µg/mL | 2 µg/mL (≈ 1.86 µM) | 7.65 mg/kg | 6.1 mg/kg | 
7 | CC[C@H]1OC(=O)[C@H](C)[C@@H](O[C@H]2C[C@@](C)(OC)[C@@H](O)[C@H](C)O2)[C@H](C)[C@@H](O[C@@H]2O[C@H](C)C[C@H](N(C)C)[C@H]2O)[C@](C)(O)C[C@@H](C)/C(=N\OCCNCCCCCCNCc2ccc([N+](=O)[O-])cc2)[C@H](C)[C@@H](O)[C@]1(C)O [Compound 35] | 0.0078 µg/mL | 0.5 µg/mL (≈ 0.487 µM) | 1 µg/mL (≈ 0.974 µM) | 1.9 ng/mL | 0.0039 µg/mL | 0.25 µg/mL (≈ 0.244 µM) | 0.0039 µg/mL | 4 µg/mL (≈ 3.9 µM) | 3 mg/kg | 6 mg/kg | 
8 | CC[C@H]1OC(=O)[C@H](C)[C@@H](O[C@H]2C[C@@](C)(OC)[C@@H](O)[C@H](C)O2)[C@H](C)[C@@H](O[C@@H]2O[C@H](C)C[C@H](N(C)C)[C@H]2O)[C@](C)(O)C[C@@H](C)/C(=N\OCCNCCCCCCNCc2ccc3c(c2)OCO3)[C@H](C)[C@@H](O)[C@]1(C)O [Compound 18, Erythromycin A (E)-9-[0-[2-[6-[(3,4-methylenedioxyphenyl)methylamino]hexylamino]ethyl]oxime]] | 0.0312 µg/mL | 2 µg/mL (≈ 1.95 µM) | 2 µg/mL (≈ 1.95 µM) | 7.8 ng/mL | 0.0156 µg/mL | 0.25 µg/mL (≈ 0.244 µM) | 0.0312 µg/mL | 16 µg/mL (≈ 15.6 µM) | 1.32 mg/kg | 2.23 mg/kg | 
9 | CC[C@H]1OC(=O)[C@H](C)[C@@H](O[C@H]2C[C@@](C)(OC)[C@@H](O)[C@H](C)O2)[C@H](C)[C@@H](O[C@@H]2O[C@H](C)C[C@H](N(C)C)[C@H]2O)[C@](C)(O)C[C@@H](C)/C(=N\OCCNCCNCc2ccccc2)[C@H](C)[C@@H](O)[C@]1(C)O [Compound 5, Erythromycin A (E)-9-[0-[2-[2-(phenylmethylamino)ethylamino]ethyl]oxime]] | 0.0312 µg/mL | 4 µg/mL (≈ 4.32 µM) | 8 µg/mL (≈ 8.65 µM) | 15.6 ng/mL | 0.0156 µg/mL | 1 µg/mL (≈ 1.08 µM) | 0.0312 µg/mL | 32 µg/mL (≈ 34.6 µM) |  |  | 
10 | CC[C@H]1OC(=O)[C@H](C)[C@@H](O[C@H]2C[C@@](C)(OC)[C@@H](O)[C@H](C)O2)[C@H](C)[C@@H](O[C@@H]2O[C@H](C)C[C@H](N(C)C)[C@H]2O)[C@](C)(O)C[C@@H](C)/C(=N\OCCCCCNCCCCCCNCc2ccccc2)[C@H](C)[C@@H](O)[C@]1(C)O [Compound 11, Erythromycin A (E)-9-[0-[5-[6-(phenylmethylamino)hexylamino]pentyl]oxime]] | 0.0625 µg/mL | 16 µg/mL (≈ 15.6 µM) | 8 µg/mL (≈ 7.82 µM) | 31.2 ng/mL | 0.25 µg/mL | 0.5 µg/mL (≈ 0.489 µM) | 0.5 µg/mL | 16 µg/mL (≈ 15.6 µM) |  |  | 
